The source made the active and inactive calls.
Legend:
Cytochrome P450 2D6 = Cytochrome P450 2D6 (Homo sapiens, UniProt P10635);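 further: CYP2D6 member of a cytochrome P450 panel assay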
Cytochrome P450 2C9 = Cytochrome P450 2C9 (Homo sapiens, UniProt P11712)
Cytochrome P450 3A4 [1] = target: T1, Cytochrome P450 3A4 (Homo sapiens, UniProt P08684);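 further: CYP3A4 tested as one member of a cytochrome P450 panel screen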
[2] = target: T2, Polyadenylate-binding protein 1 (Homo sapiens, UniProt P11940); test: PABP1 MLLE–PAM2 binding inhibitor potency, dose response, biochemical, fluorescence polarization, FITC-PAM2 peptide (AID 602259); type: functional; conditions: read-out: IC50_Mean
[3] = target: T2, Polyadenylate-binding protein 1; test: PABP1 MLLE–PAM2 interaction inhibitors, dose response, miRNA deadenylation inhibitor project, biochemical, fluorescence polarization, Cy5-PAM2 peptide, secondary (AID 602260); type: functional; conditions: read-out: IC50_Mean
[4] = target: T3, Endoribonuclease toxin MazF (Escherichia coli K-12, UniProt P0AE70); test: fluorescent RNA oligo signal without MazF, dose response, counter-screen for MazEF activator project, biochemical, fluorescence, single-stranded RNase substrate (AID 588502); type: functional
T3 sequence (P0AE70 whole entry): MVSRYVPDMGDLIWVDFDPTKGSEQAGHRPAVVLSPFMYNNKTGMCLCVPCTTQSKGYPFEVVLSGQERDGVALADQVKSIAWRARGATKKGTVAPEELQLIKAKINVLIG

[5] = target: T3, Endoribonuclease toxin MazF; test: MazF toxin RNase activators, dose response, biochemical, fluorescence, single-stranded RNA substrate, uHTS hits (AID 588481); type: functional
Fatty acid synthase [6] = target: T4, Fatty acid synthase (Homo sapiens, UniProt P49327); test: FAS thioesterase domain inhibitors, dose response, biochemical, endpoint fluorescence intensity, uHTS hits (AID 624327); type: functional;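 further: fluorescence from hydrolysis of an O-methyl fluorescein acyl ester substrate by the enzyme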
Fatty acid synthase [7] = target: T4, Fatty acid synthase; test: FAS thioesterase domain inhibitors, dose response, biochemical, kinetic fluorescence intensity (AID 624326); type: functional;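 further: rate of fluorescence rise from hydrolysis of a fluorogenic O-methyl fluorescein ester substrate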
Cytochrome P450 3A4 [8] = target: T1, Cytochrome P450 3A4; remark: listed apart in the source
[9] = cytotoxicity in MIN6 insulinoma cells, dose response, cytotoxicity control, cell-based, mouse insulinoma (AID 2122); type: functional;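 further: confirmatory high-throughput counterscreen run to flag cytotoxic compounds; mouse MIN-6 beta cells carrying an insulin promoter eGFP reporter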
[10] = insulin promoter down-regulators in MIN6 cells, imaging, high-content screening, mouse beta cells (AID 1628); type: functional
H4 = test: Luminescence Cell-Based Dose Response HTS to Identify Activators of 5'UTR Stem-Loop Driven Prion Protein mRNA Translation in H4 Neuroglioblastoma Cells. [Related pubchem assays: 1829 (Project Summary), 1814 (Primary HTS)]; type: functional; conditions: Homo sapiens
cells [11] = type: functional, cell-based
[12] = Luminescence Cell-Based Dose Confirmation HTS to Identify Activators of 5'UTR Stem-Loop Driven Alpha-Synuclein mRNA Translation in H4 Neuroglioblastoma Cells. [Related pubchem assays: 1829 (Project Summary), 1814 (Primary HTS)]; type: functional
[13] = Luminescence Cell-Based Dose Response HTS to Identify Activators of Luciferase Translation or Activity in H4 […] Cells. [Related pubchem assays: 1829 (Project Summary), 1814 (Primary HTS)]; type: functional
cells [14] = type: functional, cell-based; remark: listed apart in the source
Cytochrome P450 1A2 = target: T5, Cytochrome P450 1A2 (Homo sapiens, UniProt P05177);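 further: PubChem cytochrome P450 panel assay, CYP1A2 panel member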
T5 sequence (P05177 whole entry): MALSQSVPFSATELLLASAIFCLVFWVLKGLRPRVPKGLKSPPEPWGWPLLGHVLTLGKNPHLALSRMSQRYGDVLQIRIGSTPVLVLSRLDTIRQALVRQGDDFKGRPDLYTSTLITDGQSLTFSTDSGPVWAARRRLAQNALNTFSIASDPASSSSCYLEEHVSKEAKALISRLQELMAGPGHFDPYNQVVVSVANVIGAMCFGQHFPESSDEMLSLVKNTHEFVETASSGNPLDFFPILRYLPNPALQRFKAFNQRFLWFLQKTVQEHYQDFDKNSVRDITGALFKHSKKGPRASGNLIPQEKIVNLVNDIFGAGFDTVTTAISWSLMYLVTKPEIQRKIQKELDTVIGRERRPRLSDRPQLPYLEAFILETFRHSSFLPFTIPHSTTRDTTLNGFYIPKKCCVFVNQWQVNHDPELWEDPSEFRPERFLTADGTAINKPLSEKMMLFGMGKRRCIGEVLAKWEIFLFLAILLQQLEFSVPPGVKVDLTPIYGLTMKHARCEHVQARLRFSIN

[15] = C. albicans growth with fluconazole, confirmation, fluorescence, retest (AID 2467); type: functional, cell-based
Nonstructural protein 1 = Nonstructural protein 1 (Influenza A virus, UniProt Q194T2); type: functional, Influenza A virus (A/California/07/2009(H1N1))
H9c2 = test: cells; type: functional, cell-based; conditions: Rattus norvegicus, H9c2, Myocardium
[16] = NIH-3T3 fibroblast cytotoxicity, dose response, cytotoxicity control, cell-based, fluorescence, Alamar Blue, secondary assay (AID 2327); type: functional;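 further: NIH-3T3 mouse fibroblasts cultured with fluconazole at 8 µg/mL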
Paired box protein Pax-8 = Paired box protein Pax-8 (Homo sapiens, UniProt Q06710); test: inhibitors of PAX8-driven TPO luciferase reporter, dose response, RMG-I cells, cherry-pick (AID 687027); type: functional, cell-based;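 further: luciferase reporter driven by Pax8 target thyroperoxidase promoter measured by SteadyGlo luminescence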
[17] = NIH:OVCAR-3 ovarian cancer cell cytotoxicity, dose response, PAX8 inhibitor project, plate reader, dry powder samples (AID 743044); type: functional, cell-based
[18] = cytotoxicity in OVCAR8 ovarian cancer cells, dose response, PAX8 project, cell-based, plate reader, dry powder samples (AID 743197); type: functional; conditions: OVCAR-8
[19] = THP-1 cell cytotoxicity, dose response, cytotoxicity control for non-replicating M. tuberculosis project (AID 489025); type: functional
[20] = Vero E6 cell cytotoxicity, dose response, cytotoxicity control for non-replicating M. tuberculosis project, secondary assay (AID 492998); type: functional, VeroE6; conditions: Vero C1008
INS1 = test: beta cell apoptosis inhibitors, cytokine rescue, dose response, luminescence, retest (AID 449756); type: functional, cell-based; conditions: Rattus norvegicus;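 further: cell death triggered by IL-1 beta plus TNF-alpha plus IFN-gamma mixture; protective hits raise ATP signal compared with cytokine alone wells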

T4 sequence (P49327 whole entry, the tested form may be a part): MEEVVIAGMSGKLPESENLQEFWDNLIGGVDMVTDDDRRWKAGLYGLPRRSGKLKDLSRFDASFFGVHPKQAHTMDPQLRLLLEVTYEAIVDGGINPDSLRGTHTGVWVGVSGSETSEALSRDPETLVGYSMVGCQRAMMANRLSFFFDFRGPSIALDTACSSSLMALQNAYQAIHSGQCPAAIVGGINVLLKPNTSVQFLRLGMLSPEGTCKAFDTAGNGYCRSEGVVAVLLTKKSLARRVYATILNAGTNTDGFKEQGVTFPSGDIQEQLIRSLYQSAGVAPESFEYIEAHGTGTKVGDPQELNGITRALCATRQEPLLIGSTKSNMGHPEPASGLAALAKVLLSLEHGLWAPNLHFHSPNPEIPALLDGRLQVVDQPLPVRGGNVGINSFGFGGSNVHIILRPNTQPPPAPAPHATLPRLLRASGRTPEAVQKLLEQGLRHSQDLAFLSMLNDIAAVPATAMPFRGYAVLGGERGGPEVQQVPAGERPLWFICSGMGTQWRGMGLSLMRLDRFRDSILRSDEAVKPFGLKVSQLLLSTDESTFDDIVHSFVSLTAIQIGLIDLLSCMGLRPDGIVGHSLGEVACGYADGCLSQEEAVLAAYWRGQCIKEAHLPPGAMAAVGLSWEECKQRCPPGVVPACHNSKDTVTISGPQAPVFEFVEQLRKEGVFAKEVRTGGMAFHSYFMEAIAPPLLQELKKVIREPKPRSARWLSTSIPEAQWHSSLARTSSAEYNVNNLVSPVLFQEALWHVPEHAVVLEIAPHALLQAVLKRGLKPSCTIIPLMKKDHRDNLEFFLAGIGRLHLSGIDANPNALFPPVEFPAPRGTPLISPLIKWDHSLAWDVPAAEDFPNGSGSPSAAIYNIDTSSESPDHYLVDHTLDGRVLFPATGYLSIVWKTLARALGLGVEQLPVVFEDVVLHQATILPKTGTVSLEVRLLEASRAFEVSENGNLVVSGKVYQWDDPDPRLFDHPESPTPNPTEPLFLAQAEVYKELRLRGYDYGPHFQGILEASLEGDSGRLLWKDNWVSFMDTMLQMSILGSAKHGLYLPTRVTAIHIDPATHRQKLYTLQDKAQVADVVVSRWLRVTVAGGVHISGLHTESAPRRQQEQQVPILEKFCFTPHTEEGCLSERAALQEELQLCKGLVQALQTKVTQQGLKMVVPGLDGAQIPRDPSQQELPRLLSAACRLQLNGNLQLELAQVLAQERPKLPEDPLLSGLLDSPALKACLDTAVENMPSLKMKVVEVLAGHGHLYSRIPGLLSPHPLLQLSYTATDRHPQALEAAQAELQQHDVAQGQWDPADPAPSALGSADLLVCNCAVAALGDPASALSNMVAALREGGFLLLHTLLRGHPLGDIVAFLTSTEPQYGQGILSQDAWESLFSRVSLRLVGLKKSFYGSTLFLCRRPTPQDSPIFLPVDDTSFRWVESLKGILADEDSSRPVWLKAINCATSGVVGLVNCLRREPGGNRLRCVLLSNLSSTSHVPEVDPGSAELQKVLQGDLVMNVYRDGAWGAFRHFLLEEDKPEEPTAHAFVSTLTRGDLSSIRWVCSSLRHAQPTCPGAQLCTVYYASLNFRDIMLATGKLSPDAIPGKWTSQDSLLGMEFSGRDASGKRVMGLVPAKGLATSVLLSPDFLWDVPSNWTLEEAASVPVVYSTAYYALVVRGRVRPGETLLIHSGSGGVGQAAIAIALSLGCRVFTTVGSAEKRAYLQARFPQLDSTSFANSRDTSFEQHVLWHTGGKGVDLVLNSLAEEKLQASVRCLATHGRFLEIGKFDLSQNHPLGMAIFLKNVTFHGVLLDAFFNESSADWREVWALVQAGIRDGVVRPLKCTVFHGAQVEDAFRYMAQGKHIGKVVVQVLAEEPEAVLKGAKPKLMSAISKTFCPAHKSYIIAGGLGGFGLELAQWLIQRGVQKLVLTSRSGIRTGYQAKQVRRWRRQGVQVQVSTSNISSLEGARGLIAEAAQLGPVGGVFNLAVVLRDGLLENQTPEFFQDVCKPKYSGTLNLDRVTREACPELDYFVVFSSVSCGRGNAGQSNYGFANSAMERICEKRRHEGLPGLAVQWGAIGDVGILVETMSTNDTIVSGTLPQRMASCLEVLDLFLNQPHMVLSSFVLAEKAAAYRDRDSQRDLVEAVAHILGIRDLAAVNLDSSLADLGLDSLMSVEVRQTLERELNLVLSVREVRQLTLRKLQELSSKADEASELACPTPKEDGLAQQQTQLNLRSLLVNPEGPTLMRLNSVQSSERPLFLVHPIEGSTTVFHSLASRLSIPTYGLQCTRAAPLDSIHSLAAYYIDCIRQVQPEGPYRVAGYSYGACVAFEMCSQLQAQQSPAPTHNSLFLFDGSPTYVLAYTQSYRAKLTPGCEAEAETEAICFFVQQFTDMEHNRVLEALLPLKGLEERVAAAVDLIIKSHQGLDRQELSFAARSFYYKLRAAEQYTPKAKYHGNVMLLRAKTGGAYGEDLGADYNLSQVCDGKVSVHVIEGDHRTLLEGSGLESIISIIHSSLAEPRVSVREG
T1 sequence (P08684 whole entry): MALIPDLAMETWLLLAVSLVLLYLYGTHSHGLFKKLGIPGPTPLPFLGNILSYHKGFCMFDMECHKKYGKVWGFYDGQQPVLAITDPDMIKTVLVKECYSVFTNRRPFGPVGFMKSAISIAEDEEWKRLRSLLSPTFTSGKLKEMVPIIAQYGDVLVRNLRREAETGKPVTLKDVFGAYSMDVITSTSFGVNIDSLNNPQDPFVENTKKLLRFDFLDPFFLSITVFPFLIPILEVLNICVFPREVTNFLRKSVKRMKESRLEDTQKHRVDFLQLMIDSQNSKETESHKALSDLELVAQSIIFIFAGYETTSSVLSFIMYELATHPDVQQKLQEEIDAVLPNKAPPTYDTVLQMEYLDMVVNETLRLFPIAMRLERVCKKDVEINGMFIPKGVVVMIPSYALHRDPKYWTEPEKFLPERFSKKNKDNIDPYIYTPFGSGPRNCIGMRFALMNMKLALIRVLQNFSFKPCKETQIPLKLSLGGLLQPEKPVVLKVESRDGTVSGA
T2 sequence (P11940 whole entry): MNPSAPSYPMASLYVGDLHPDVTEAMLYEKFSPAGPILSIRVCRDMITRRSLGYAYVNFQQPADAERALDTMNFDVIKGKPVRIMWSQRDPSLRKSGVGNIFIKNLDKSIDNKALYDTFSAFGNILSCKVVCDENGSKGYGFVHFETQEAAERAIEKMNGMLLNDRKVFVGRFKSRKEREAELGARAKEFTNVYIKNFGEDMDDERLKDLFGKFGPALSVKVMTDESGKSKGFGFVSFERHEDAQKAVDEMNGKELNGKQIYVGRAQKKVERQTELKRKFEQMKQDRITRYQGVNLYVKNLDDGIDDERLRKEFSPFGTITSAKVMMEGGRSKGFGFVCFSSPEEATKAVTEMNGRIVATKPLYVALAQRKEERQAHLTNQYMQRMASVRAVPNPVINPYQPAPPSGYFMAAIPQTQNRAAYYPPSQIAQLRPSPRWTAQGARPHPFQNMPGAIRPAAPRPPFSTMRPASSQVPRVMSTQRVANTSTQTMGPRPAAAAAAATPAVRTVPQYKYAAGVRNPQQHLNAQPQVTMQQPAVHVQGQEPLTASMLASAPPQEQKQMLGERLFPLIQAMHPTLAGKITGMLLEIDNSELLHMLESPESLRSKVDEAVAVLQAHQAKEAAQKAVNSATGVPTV
Chain of Nonstructural protein 1 (Q194T2 whole entry): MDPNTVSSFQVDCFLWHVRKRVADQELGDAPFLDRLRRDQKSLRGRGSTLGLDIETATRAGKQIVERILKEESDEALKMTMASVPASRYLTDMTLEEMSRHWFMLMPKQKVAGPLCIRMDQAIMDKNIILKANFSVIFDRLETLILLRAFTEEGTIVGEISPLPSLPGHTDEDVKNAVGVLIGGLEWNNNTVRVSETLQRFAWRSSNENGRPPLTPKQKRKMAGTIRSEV
Chain of Paired box protein Pax-8 (Q06710 whole entry): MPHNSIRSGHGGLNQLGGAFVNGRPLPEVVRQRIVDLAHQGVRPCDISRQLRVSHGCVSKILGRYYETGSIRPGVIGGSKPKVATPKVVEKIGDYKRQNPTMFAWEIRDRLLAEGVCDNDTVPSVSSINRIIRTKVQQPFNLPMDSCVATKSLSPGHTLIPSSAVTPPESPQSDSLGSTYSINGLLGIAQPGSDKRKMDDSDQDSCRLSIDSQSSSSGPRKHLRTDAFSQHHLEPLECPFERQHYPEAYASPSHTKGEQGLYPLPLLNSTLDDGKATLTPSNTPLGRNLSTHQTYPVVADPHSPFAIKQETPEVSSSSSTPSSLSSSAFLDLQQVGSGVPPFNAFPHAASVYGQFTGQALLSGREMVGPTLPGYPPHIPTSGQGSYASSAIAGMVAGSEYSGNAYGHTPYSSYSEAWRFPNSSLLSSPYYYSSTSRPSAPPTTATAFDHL
Chain of Cytochrome P450 2D6 (P10635 whole entry): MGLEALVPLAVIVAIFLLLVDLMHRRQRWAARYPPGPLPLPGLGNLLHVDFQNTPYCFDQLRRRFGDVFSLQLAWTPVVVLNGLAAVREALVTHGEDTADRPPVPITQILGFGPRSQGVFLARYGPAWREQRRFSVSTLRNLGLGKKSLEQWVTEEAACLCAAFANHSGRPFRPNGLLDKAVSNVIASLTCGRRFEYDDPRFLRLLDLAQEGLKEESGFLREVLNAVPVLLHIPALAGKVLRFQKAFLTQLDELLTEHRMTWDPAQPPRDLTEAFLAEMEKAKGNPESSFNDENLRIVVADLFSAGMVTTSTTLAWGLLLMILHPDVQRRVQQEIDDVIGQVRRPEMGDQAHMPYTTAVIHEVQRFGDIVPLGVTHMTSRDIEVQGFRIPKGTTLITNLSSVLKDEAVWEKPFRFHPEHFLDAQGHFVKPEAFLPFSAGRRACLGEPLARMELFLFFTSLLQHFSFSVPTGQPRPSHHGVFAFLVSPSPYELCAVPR

## CCCn1nc2cc(C(=O)NC3CCCc4ccccc43)ccc2c1OCC (centres undefined)
Cytochrome P450 2D6
  AC50: 25.1 µM (inconclusive)
Cytochrome P450 2C9
  AC50: inconclusive
Cytochrome P450 3A4 [1]
  AC50: 15.8 µM (inconclusive)

## CCC1CCCCN1C(=S)NC(=O)c1cccc([N+](=O)[O-])c1 (centres undefined)
[2]
  IC50: > 66 µM (inactive)
[3]
  IC50: > 66 µM (inactive)

## COc1ccc(OCCNc2cc(Cl)ccc2[N+](=O)[O-])cc1
[4]
  EC50: > 99 µM (inactive)
[5]
  EC50: > 99 µM (inactive)

## O=C(CSc1ccc([N+](=O)[O-])cn1)Nc1ccc2c(c1)OCO2
Fatty acid synthase [6]
  IC50: 0.981 µM (active)
Fatty acid synthase [7]
  IC50: 0.951 µM (active)

## COc1ccc(C(=O)N2CCC3(CC2)CCN(c2ccccc2)CC3)cc1
Cytochrome P450 3A4 [8]
  AC50: inconclusive

## COc1ccccc1OCC(=O)Sc1ccc(C)cc1
[2]
  IC50: > 66 µM (inactive)
[3]
  IC50: > 66 µM (inactive)

## Cc1cc(C(=O)CSc2nc3ccccc3[nH]2)c(C)n1Cc1ccco1
[9]
  IC50: 1.29 µM (active)
[10]
  IC50: 1.93 µM (active)

## COc1ccc2oc(=O)c(C(=O)NC3CCCCCC3)cc2c1
H4
  EC50: 19.8 µM (active)
Cells [11]
  EC50: > 350 µM (not active)
[12]
  EC50: 28.6 µM (active)
[13]
  EC50: 32.6 µM (active)
Cells [14]
  EC50: > 350 µM (not active)

## O=C(c1cccc(F)c1)N1CCC2(CC1)CCN(c1ccccc1)CC2
Cytochrome P450 3A4 [8]
  AC50: inconclusive

## COc1ccc(OC)c(C2=Nn3c(nnc3-c3cc(C)[nH]n3)SC2)c1
Cells [11]
  EC50: > 350 µM (not active)
Cells [14]
  EC50: > 350 µM (not active)

## O=C1C=C(c2ccccc2)CC(c2cccs2)C1n1cnc([N+](=O)[O-])c1 (centres undefined)
Cells [11]
  EC50: > 350 µM (not active)
Cells [14]
  EC50: > 350 µM (not active)

## CCS(=O)(=O)N1CCN(c2c(Cl)cccc2[N+](=O)[O-])CC1
Cytochrome P450 3A4 [8]
  AC50: inconclusive
Cytochrome P450 1A2
  AC50: 15.8 µM (inconclusive)

## O=[N+]([O-])c1ccc(S(=O)(=O)Nc2ccc(-c3ccccc3)cc2)cc1
Fatty acid synthase [6]
  IC50: 5.95 µM (active)
Fatty acid synthase [7]
  IC50: 6.47 µM (active)

## CCOc1cccc(-c2c(C(=O)N/N=C(\C)c3ccccn3)nnn2-c2nonc2N)c1
Cells [11]
  EC50: 6.32 µM (active)
[15]
  EC50: > 38 µM (not active)
Nonstructural protein 1
  IC50: 3.36 µM (active)
H9c2
  IC50: > 79 µM (inactive)
[16]
  EC50: 18.2 µM (active)
Cells [14]
  EC50: > 350 µM (not active)

## C/C(=N\NC(=S)NCCc1ccccc1)c1cccc(Br)c1
[2]
  IC50: > 66 µM (inactive)
[3]
  IC50: > 66 µM (inactive)

## C[C@@H]1CCCCO[C@H](CN(C)C(=O)Nc2ccc(F)cc2)[C@@H](C)CN([C@@H](C)CO)C(=O)c2cc(NS(=O)(=O)c3ccc(Cl)cc3)ccc2O1
Paired box protein Pax-8
  AC50: 4.84 µM (active)
[17]
  AC50: 19.6 µM (active)
[18]
  AC50: 35 µM (active)

## CCOc1ccc(C(=O)N/N=C(/C)C2C(=O)c3ccccc3C2=O)cc1
[19]
  CC50: > 40 µM (active)
[20]
  CC50: > 20 µM (active)

## COc1ccc(/C=N/NC(=O)c2nc(-c3ccccc3)n(-c3ccccc3)n2)c(O)c1
Cells [11]
  EC50: 10.1 µM (active)
INS1
  AC50: 1.47 µM (active)
Cells [14]
  EC50: > 350 µM (not active)
